Laboratory results from paper PMC12449371, “The role of unsaturated fatty acids in modulating human butyrylcholinesterase activity: insights from kinetics and molecular docking” (Naunyn-Schmiedeberg's Archives of Pharmacology, 2025).
Entries after “also recorded” stand apart in the source; their conditions may differ. Where two headings read alike, the source gives them in different places.

Legend:
AChE = tested on: AChE; design: method as in Akay et al. [2023]; settings: ref Akay et al. [2023]; cited from earlier work
human BChE [1] = target: T1, human BChE (Homo sapiens, UniProt P06276); experiment: Inhibition kinetics, Ellman method with varying BTCh substrate; assay type: biochemical; settings: for Ki: BTCh as substrate (1.0-0.05 mM), three fatty acid concentrations; for Inhibition type: Lineweaver-Burk analysis, BTCh as substrate
T1 construct: purification process was performed using 0 Rh (−) human blood serum from the Hacettepe Hospital blood bank; from tissue; host or cells: human blood serum (0 Rh(−), Hacettepe Hospital blood bank)
T1 sequence (P06276 29-602): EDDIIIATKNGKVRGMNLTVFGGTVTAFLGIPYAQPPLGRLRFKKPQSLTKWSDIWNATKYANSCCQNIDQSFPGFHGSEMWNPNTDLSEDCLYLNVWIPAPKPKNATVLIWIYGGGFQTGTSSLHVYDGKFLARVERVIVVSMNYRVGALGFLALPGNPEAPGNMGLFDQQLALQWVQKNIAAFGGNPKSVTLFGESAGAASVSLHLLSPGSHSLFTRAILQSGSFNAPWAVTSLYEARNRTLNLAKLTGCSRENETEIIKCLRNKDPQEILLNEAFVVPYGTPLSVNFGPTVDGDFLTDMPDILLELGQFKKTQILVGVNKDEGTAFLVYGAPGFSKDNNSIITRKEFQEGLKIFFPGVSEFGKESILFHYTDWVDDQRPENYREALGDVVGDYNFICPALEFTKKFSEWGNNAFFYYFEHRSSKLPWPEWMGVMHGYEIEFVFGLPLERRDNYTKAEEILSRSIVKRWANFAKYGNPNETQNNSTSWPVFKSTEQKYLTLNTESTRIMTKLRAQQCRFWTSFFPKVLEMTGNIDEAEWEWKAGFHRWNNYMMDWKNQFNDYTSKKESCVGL
Description: (§1) The butyrylcholinesterase purification process was performed using 0 Rh (−) human blood serum from the Hacettepe Hospital blood bank, as described in a previous study (Gok et al. [2023]). BChE was subjected to acid dialysis followed by DEAE-Trisacryl M ion-exchange chromatography under pH 5.5 conditions. The pooled active fractions from Trisacryl M chromatography were dialyzed to adjust neutral buffer pH 7.4 and transferred to procainamide-Sepharose 4B chromatography. The BChE enzyme was bound to the procainamide column, which was then washed with 25 mM phosphate buffer at pH 7.4. The BChE was eluted from the column with a linear gradient of 0.2–0.8 M NaCl in 25 mM potassium phosphate buffer pH 7.4, followed by dialysis. […] Silver staining (Blum et al. [1987]) and the Karnovsky-Roots technique (Karnovsky and Roots [1964]) were used to visualize gels that had been labeled for activity and protein, […].
Evaluation of BChE activity was performed according to the Ellman method (George and Abernethy [1983]) with a minor modification in a 96-well microtiter plate assay. The fatty acids oleic acid, linoleic acid, α-LA, and arachidonic acid used in the assay were dissolved in DMSO. The working solutions were then sonicated in a reaction buffer for 30 + 30 s. Based on previous experimental results, three concentrations of oleic acid, linoleic acid, α-LA, and arachidonic acid were chosen: 200–750 µM, 500–2500 µM, 50–250 µM, and 100–300 µM, respectively. This was to clarify the inhibitory mechanisms for the fatty acids. In the presence of these fatty acids, BChE activity was measured at eight progressively lower concentrations (1.0–0.05 mM) of the BTCh substrate. The experimental procedure involved incubation of a solution of the fatty acid with BChE enzyme (0.7 µg), 50 mM MOPS buffer pH 7.4, and 0.25 mM DTNB in the absence of light at 37 °C for 5 min. The reaction was initiated and monitored for 10 min at 412 nm in kinetic mode after addition of the substrate. The identical solution was run with buffer instead of fatty acids as a control and all assays were performed in triplicate. Enzyme activity was expressed in milliunits (mU), where 1 mU corresponds to the hydrolysis of 1 nmol of BTCh per minute at room temperature.
Enzyme kinetics data was analyzed and graphs were plotted using GraphPad Prism 8.42. The kinetic parameters and the enzyme-substrate relationship were fitted to the Michaelis-Menten model using nonlinear regression.

human BChE [2] = target: T1, human BChE; experiment: IC50 determination, modified 96-microtiter plate Ellman assay; assay type: biochemical; settings: purified human serum BChE, 0.5 mM BTCh, 50 mM MOPS pH 7.4, 37 °C, Table 2 head prints no unit, µM
Description: as §1
The IC₅₀ was determined using the modified 96-microtiter plate Ellman assay (George and Abernethy [1983]), using a total volume of 200 µL. […] The unsaturated fatty acids used for the test were dissolved in DMSO and then the working solutions were sonicated in a reaction buffer for 30 s, followed by a further 30 s. The fatty acid solutions with different final concentrations of 10–7500 µM were added to the wells. Subsequently, 50 mM MOPS buffer (pH 7.4) and 0.7 µg of purified BChE enzyme were added. The plate was incubated in the absence of light with a plate shaker at 37 °C for 10 min. Measurements were initiated by adding a final concentration of 0.25 mM DTNB (ε412, DTNB = 14.2 mM^−1 cm^−1) and 0.5 mM butyrylthiocholine (BTCh). The mixture of 1% DMSO without the BTCh substrate was used as the reagent blank. The absorbance readings were recorded at a wavelength of 412 nm for a period of 10 min using the Spectramax M2 microplate reader (Molecular Devices, USA). The activity without fatty acids was set as 100% control, while all activities with fatty acids were compared to this control. IC₅₀ values were determined using GraphPad Prism 8.4 software by plotting the percentage of BChE activity against the fatty acid concentration. Each test was performed at least four times and average values were reported as final results.

Question: With CCCCC/C=C\C/C=C\C/C=C\C/C=C\CCCC(=O)O [Arachidonic acid, arachidonic acid] as the molecule, how does the “inhibitory effect on AChE (IC50), rank in words” value (AChE) read?
Answer: strongest inhibitory effect

Question: And the Ki (human BChE [1]; read-out: Ki)?
Answer: 465 µM

Question: What about the Inhibition type (human BChE [1]; listed as AA) of the same molecule?
Answer: uncompetitive type inhibition

Question: And the Inhibition type (human BChE [1]; listed as Arachidonic acid (20:4))?
Answer: Uncompetitive

Question: And the IC50 (human BChE [2])?
Answer: strongest inhibitory activity

Question: What about the IC50 (human BChE [2]; read-out: IC50) of the same molecule?
Answer: 611 µM

Question: Which Ki (human BChE [1]; read-out: Ki) does the source give for CCCCC/C=C\C/C=C\CCCCCCCC(=O)O [Linoleic acid, linoleic acid] here?
Answer: 1400 µM

Question: And the Inhibition type (human BChE [1])?
Answer: Noncompetitive inhibition

Question: And the Inhibition type (human BChE [1]; listed as LA)?
Answer: noncompetitive inhibition type

Question: And the Inhibition type (human BChE [1]; listed as Linoleic acid (18:2))?
Answer: Noncompetitive

Question: And the IC50 (human BChE [2]; read-out: IC50)?
Answer: 5910 µM

Question: With CCCCCCCC/C=C\CCCCCCCC(=O)O [Oleic acid, oleic acid] as the molecule, how does the Ki (human BChE [1]) read?
Answer: lowest Ki value

Question: What about the Ki (human BChE [1]; read-out: Ki) of the same molecule?
Answer: 321 µM

Question: What about the Inhibition type (human BChE [1]) of the same molecule?
Answer: noncompetitively

Question: And the Inhibition type (human BChE [1]; listed as Oleic acid (18:1))?
Answer: Noncompetitive

Question: And the IC50 (human BChE [2]; read-out: IC50)?
Answer: 2370 µM

Question: With CCCCCCCCCCCCCCCCCCCC(=O)O [eicosanoic acid] as the molecule, how does the “AChE inhibition in words” value (AChE) read?
Answer: strongly inhibits

Question: For CC/C=C\C/C=C\C/C=C\CCCCCCCC(=O)O [α-Linolenic acid, alpha-linolenic acid], which “noncompetitive inhibitory constants (Ki) on AChE, rank in words” value (AChE) is on record?
Answer: lowest Ki

Question: What about the Ki (human BChE [1]; read-out: Ki) of the same molecule?
Answer: 667 µM

Question: And the Inhibition type (human BChE [1]; listed as α-LA)?
Answer: noncompetitively; also recorded: noncompetitive inhibition type

Question: And the Inhibition type (human BChE [1]; listed as α-Linolenic acid (18:3))?
Answer: Noncompetitive

Question: And the IC50 (human BChE [2]; read-out: IC50)?
Answer: 5810 µM
